PMC9029529, “Distinct Mechanisms of Cytotoxicity in Novel Nitrogenous Heterocycles: Future Directions for a New Anti-Cancer Agent” (Molecules, 2022)
Read-outs that look alike come from different tables or passages of the source.

Columns and labels:
HCT8 cells = assay: MTT assay, HCT8; type: cell-based; details: Homo sapiens, HCT-8, 24 h, 0 to 250 μM, read-out: IC50 Colorectal Cancer (HCT8)
Procedure: (§1) To establish the cytotoxic effect of the nitrogenous derivatives, cells were treated with various concentrations of the drugs ranging from 0 to 250 μM. Following a 24 h incubation period, cell viability was assessed using the MTT assay. Mitoxantrone served as a positive control to evaluate growth inhibition. Since heterogeneity is a hallmark of cancer, the study included cell lines with diverse genomic and proteomic profiles. […] In this regard, further optimization would be required to increase the selective therapeutic potential of compound 9. To determine whether the anti-proliferative effect of the nitrogen derivatives could be translated to other malignancies, we tested the cytotoxic effect on the HCT8 (colorectal cancer) cell line. HCT8 is an adenocarcinoma driven by the Kirsten Rat Sarcoma (KRAS) mutation, unlike MCF-10A [28].
(§2) The MTT assay was utilized to examine the imidazole derivatives’ anti-proliferative activity against MCF-10A, MDA-MB-231, and HCT8 cell lines, purchased from ATCC, USA [47]. Firstly, 5 × 10^3 cells/well were seeded in a 96-well plate in 100 μL of growth medium and were subsequently cultured overnight with various concentrations of each compound ranging from 0 to 250 µM [48]. The media was aspirated, and 50 µL of serum-free media and 50 µL of MTT solution were added to each well. Next, cells were incubated at 37 °C for 3 h, then 150 µL of MTT solvent was added into each well. After that, plates were wrapped in foil and agitated for 15 min on an orbital shaker. Finally, the absorbance was measured within 1 h at OD590 nm. Half-maximal inhibitory concentration IC50 values (μM) were calculated for each compound from the dose–response curve. Experiments were performed in triplicates.

HL60 cells [1] = assay: CellTiter-Glo assay, HL60; type: cell-based, human; details: read-out: IC50 Leukemia HL60
Procedure: (§3) To validate the anti-proliferative activity of the imidazole derivatives, the compounds were tested against several cancer cell lines, which included breast cancer (MDA-MB-231, KAIMRC1, and KAIMRC2), colorectal cancer (HCT8), and acute promyelocytic leukemia cells (HL60). KAIMRC1 was isolated from a person with stage II-B breast cancer and is ER+/PR+ and HER2-. In comparison, KAIMRC2 was isolated from a person with metastasized breast cancer and is a triple-negative (ER-/PR-, and HER2-) tumor cell line.
(§4) The CellTiter-Glo assay (Promega™, Madison, WI, USA) was used to evaluate imidazole and oxazolone derivatives cytotoxicity against various cancer cell lines; MCF-10A, HL60, MDA-MB-231, and HCT8, purchased from ATCC, USA, except KAIMRC1 and KAIMRC2, which were isolated, established, and characterized in the core laboratory facility KAIMRC, Riyadh, Saudi Arabia. The cells were seeded in white 96-well plates at a density of 5 × 10^3 cells/well in a 100 μL of growth medium with various concentrations of each compound ranging from 0 to 250 µM. Cells were incubated at 37 °C for 24 h. Plates were equilibrated at RT for 30 min. A quantity of 100 µL of CellTiter-Glo reagent was added to each well and mixed for 2 min on an orbital shaker. Plates were incubated for 10 min at RT before measuring the luminescence using an Envision plate reader (Perkin Elmer). Half-maximal inhibitory concentration IC50 values (μM) were calculated for each imidazole derivative from the dose–response curve. The cytotoxic effect at a concentration <10 µM was considered strongly active and from 11 to 100 µM was considered moderately active, whereas above 100 µM was deemed non-active. Mitoxantrone was utilized as a positive control. Experiments were performed in triplicates.

HL60 cells [2] = assay: High-content imaging (HCI) cell health / apoptosis assay; type: cell-based, human; details: for viability at 31.25 µM / viability at 62.5 µM / viability at 125 µM: Homo sapiens, HL-60, HCI Cell Health, read-out: HL60 Cell Line % Cell Viability; for viability at 31.25 µM / viability at 62.5 µM / viability at 125 µM / apoptosis in HL60 cells (HCI): 48 h; for apoptosis in HL60 cells (HCI): increasing concentrations 31.25-125 µM, compared with control
Procedure: Figure 5A depicts a dose-dependent increase in cell shrinkage/condensing, and necrotic cells are also visible. […] Furthermore, even at the lowest concentration, 31.25 µM, compound 9 was more efficacious than compound 8 since there appeared to be fewer healthy cells (blue and green staining) and a greater level of shrinkage. Moreover, Figure 5B depicts the HCI Cell Health determined by means of digital analysis, displaying the HL60 percentage cell viability as a function of increasing drug concentrations.
Figure 5 HCI-based apoptosis assay. (A) HL60 cells were treated with three concentrations (31.25 µM, 62.5 µM, and 125 µM) of compounds # 8 (a–c), # 9 (d–f), and PBS for the negative control (g) for 48 h. The nucleus (blue) was stained with HOECHST 33342, the cytoplasm (Green) was stained with Calcein AM, and dead cells (Red) were stained with Propidium Iodide (PI). […] (B) HCI Cell Health Digital Analysis MetaXpress software generated the graph quantifying the cell viability, seen in B, as a percentage of HL60 cells treated with the compounds. […] TEXT PRINTED IN THE PICTURE: (B) Compound # 8: HL60 Cell Line % Cell Viability: 64.5 (125μM); HL60 Cell Line % Cell Viability: 87.4 (62.5μM); HL60 Cell Line % Cell Viability: 94.6 (31.25μM) | (B) Compound # 9: HL60 Cell Line % Cell Viability: 45.7 (125μM); HL60 Cell Line % Cell Viability: 56.9 (62.5μM); HL60 Cell Line % Cell Viability: 79.9 (31.25μM) | (B) Control: HL60 Cell Line % Cell Viability: 98.5
HL60 cells were seeded in a 96-well plate at a density of 20,000 cells per well. The cells were treated with compounds 8 and 9 and negative control (PBS) for 48 h. Three graded concentrations were used for the treatment, 31.25 µM, 62.5 µM, and 125 µM. After the treatment, the cells were stained with Calcein AM (2 µg/mL), HOECHST33342 (2.5 µg/mL), and Propidium Iodide (2.5 µg/mL) for 45 min at 37 °C and 5% CO2. Plates were imaged on a Molecular Devices ImageXpress® Microsystem, and the acquired image data were analyzed using MetaXpress® software, Molecular Devices, Downingtown, PA, USA. The Cell Health module available in the MetaXpress software was used to measure the percentage viability of live and dead cells. Experiments were performed in triplicates.

MDA-MB-231 cells [3] = assay: MTT assay, MDA-MB-231; type: cell-based, human; details: 0 to 250 μM, read-out: IC50 Breast Cancer (MDA-MB-231)
Procedure: as §1, §2

MCF-10A cells = assay: MTT assay, MCF-10A; type: cell-based, human; details: for IC50: Homo sapiens, MCF-10A, 24 h, 0 to 250 μM, read-out: IC50 Non-Malignant Breast Epithelial Cells (MCF-10A)
Procedure: as §1, §2

MDA-MB-231 cells [4] = assay: CellTiter-Glo assay, MDA-MB-231; type: cell-based; details: Homo sapiens, 24 h, read-out: IC50 Breast Cancer MDA-MB-231
Procedure: as §3, §4

Structure (SMILES) | IC50 (HCT8 cells) [µM] | IC50 (HL60 cells [1]; 24 h) [µM] | IC50 (HL60 cells [1]; Homo sapiens, HL-60, 24 h) [µM] | cytotoxic efficacy (HL60 cells [2]; 31.25 µM, HL60, 48 h) | cytotoxicity (HL60 cells [2]; 62.5 µM, HL60, 48 h) | viability at 31.25 µM (HL60 cells [2]) [%] | viability at 62.5 µM (HL60 cells [2]) [%] | viability at 125 µM (HL60 cells [2]) [%] | apoptosis in HL60 cells (HCI) (HL60 cells [2]) | IC50 (MDA-MB-231 cells [3]; Homo sapiens, MDA-MB-231, 24 h) [µM] | IC50 (MCF-10A cells) [µM] | IC50 (MDA-MB-231 cells [4]) [µM] | IC50 (MDA-MB-231 cells [3]; 24 h) [µM] | IC50 in MCF-10A relative to MDA-MB231 (cytotoxic selectivity) (MCF-10A cells)
COc1cccc(/C=C2\N=C(c3ccccc3)N(Nc3ccc([N+](=O)[O-])cc3[N+](=O)[O-])C2=O)c1 [Compound 9] | 13.2 | 8.63 | 8.63 | approximately 20% | approximately 54% | 79.9 | 56.9 | 45.7 | led to apoptosis | 17 | 9.52 | 39.2 | – | –
O=C1/C(=C/c2ccccc2)N=C(c2ccccc2)N1Nc1ccc([N+](=O)[O-])cc1[N+](=O)[O-] [Compound 8] | 29.5 | 9.24 | 9.23 | – | – | 94.6 | 87.4 | 64.5 | led to apoptosis | 4.7 | 30.7 | 19 | 4.76 | six-fold higher
